Test results from paper PMC11284802 (Journal of Medicinal Chemistry, 2024).
pIC50: −log10 of the molar value. Values belong to the molecule of their own block, whether it stands above or below them.

Assays:
[1] = Mouse liver microsomal stability; format: in vitro ADME; settings: male, CD-1, mouse, liver microsomes, pH 7.4
[2] = Human liver microsomal CLint; format: in vitro ADME; settings: liver microsomes
[3] = Mouse hepatocyte stability; format: in vitro ADME; settings: male, CD-1, mouse, cryopreserved hepatocytes
[4] = Human hepatocyte stability; format: in vitro ADME; settings: cryopreserved hepatocytes
[5] = tested on: mouse hepatitis virus (MHV); assay: MHV assay; format: cell-based
[6] = tested on: phosphorylation of CSNK2 substrate EIF2S2; assay: Inhibition of EIF2S2 phosphorylation in vitro; format: cell-based, human; settings: A549-ACE2 cells, 1 or 5 μM, 24 h
A549-ACE2 cells = assay: LDH cytotoxicity assay; format: cell-based, human; settings: concentrations below 10 μM
Plasma stability = format: in vitro ADME; settings: human plasma, 37 °C, 0 and 6 h
EIF2S2 (phospho-Ser2) = assay: In vivo CSNK2 inhibition; set-up: species or system CD-1 mice; settings: 10 mg/kg i.p. b.i.d., 36 h, vs vehicle
AKT (phospho-Ser129) = assay: In vivo CSNK2 inhibition; set-up: species or system CD-1 mice; settings: 10 mg/kg i.p. b.i.d., 36 h, vs vehicle
DYRK1A [7] = molecular target: T1, DYRK1A (Homo sapiens, UniProt Q13627); assay: NanoBRET dose-response, off-target kinase; format: cell-based; settings: poor assay window
DAPK2 = DAPK2 (Homo sapiens, UniProt Q9UIK4); assay: NanoBRET K192 panel; format: cell-based; settings: read-out: NanoBRET K192 % occupancy at 10 μM, DAPK2
Chain of DAPK2 (Q9UIK4 whole entry): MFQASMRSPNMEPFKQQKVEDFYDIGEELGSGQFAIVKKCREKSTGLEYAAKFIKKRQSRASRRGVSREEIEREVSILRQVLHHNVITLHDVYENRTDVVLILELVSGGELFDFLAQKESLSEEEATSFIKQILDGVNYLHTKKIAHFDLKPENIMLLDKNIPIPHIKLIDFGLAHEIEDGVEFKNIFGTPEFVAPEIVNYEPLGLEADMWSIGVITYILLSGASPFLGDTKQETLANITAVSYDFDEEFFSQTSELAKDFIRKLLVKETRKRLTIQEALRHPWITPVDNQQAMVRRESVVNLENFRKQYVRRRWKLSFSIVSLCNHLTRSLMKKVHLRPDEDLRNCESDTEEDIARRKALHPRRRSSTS

HIPK4 = molecular target: T2, HIPK4 (Homo sapiens, UniProt Q8NE63); assay: NanoBRET K192 panel; format: cell-based; settings: read-out: NanoBRET K192 % occupancy at 10 μM, HIPK4
T2 sequence (Q8NE63 1-616): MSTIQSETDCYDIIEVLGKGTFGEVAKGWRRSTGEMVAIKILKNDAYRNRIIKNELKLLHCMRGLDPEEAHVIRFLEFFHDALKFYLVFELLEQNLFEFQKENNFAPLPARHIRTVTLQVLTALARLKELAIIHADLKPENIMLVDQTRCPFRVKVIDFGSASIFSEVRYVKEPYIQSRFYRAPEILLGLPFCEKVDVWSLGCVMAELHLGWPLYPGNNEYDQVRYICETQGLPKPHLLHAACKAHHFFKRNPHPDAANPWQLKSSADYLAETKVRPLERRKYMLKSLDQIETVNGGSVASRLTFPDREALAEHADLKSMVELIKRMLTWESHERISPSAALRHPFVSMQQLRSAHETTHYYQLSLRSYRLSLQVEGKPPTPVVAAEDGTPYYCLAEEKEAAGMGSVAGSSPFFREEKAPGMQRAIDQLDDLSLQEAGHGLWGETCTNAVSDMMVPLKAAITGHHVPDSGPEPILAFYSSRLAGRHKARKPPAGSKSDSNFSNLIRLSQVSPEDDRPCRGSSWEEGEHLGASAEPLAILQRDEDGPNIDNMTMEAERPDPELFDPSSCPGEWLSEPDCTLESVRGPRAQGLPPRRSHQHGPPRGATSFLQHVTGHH

CLK4 = CLK4 (Homo sapiens, UniProt Q9HAZ1); assay: NanoBRET K192 panel; format: cell-based; settings: read-out: NanoBRET K192 % occupancy at 10 μM, CLK4
Chain of CLK4 (Q9HAZ1 whole entry): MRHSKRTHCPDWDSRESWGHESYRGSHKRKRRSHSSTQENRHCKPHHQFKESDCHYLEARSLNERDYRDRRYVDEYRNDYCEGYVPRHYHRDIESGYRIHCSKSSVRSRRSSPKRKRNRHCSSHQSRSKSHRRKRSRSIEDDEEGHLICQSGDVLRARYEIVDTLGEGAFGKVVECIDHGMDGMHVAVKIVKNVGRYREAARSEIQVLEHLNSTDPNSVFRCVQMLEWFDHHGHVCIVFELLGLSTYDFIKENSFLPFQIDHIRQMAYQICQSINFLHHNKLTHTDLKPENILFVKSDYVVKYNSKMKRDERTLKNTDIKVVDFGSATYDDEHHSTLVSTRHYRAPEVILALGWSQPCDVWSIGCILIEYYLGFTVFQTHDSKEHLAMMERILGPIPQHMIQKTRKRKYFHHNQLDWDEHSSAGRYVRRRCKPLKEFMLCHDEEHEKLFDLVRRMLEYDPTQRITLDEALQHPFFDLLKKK

PHKG1 = PHKG1 (Homo sapiens, UniProt Q16816); assay: NanoBRET K192 panel; format: cell-based; settings: read-out: NanoBRET K192 % occupancy at 10 μM, PHKG1
Chain of PHKG1 (Q16816 whole entry): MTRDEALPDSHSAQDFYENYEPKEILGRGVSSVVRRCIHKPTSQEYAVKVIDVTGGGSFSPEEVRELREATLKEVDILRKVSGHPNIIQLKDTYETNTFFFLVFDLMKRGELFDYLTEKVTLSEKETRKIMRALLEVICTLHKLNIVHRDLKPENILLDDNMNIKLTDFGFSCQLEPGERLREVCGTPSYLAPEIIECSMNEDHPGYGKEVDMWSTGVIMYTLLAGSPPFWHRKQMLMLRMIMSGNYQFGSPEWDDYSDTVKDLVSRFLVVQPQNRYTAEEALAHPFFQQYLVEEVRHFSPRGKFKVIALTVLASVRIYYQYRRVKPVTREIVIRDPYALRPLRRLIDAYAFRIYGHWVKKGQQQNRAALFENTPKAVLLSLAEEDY

DYRK1A [8] = molecular target: T1, DYRK1A; assay: NanoBRET K192 panel; format: cell-based; settings: read-out: NanoBRET K192 % occupancy at 10 μM, DYRK1A

SMILES: CN[C@H]1CCCN(c2ccc(Nc3cc(NC4CC4)n4ncc(C#N)c4n3)cc2-n2cnnc2)C1 [Compound 69, (S)-7-(Cyclopropylamino)-5-((4-(3-(methylamino)piperidin-1-yl)-3-(4H-1,2,4-triazol-4-yl)phenyl)amino)pyrazolo[1,5-a]pyrimidine-3-carbonitrile]
- fold decrease in MHV potency ([5]; relative to 68): 3 fold

SMILES: CCN(CCN)c1ccc(Nc2cc(NC3CC3)n3ncc(C#N)c3n2)cc1-n1cnnc1 [Compound 53, 5-((4-((2-Aminoethyl)(ethyl)amino)-3-(4H-1,2,4-triazol-4-yl)phenyl)amino)-7-(cyclopropylamino)pyrazolo[1,5-a]pyrimidine-3-carbonitrile]
- phosphorylation levels of CSNK2 substrate EIF2S2 [6]: reduction in phosphorylation levels
- cell viability by LDH assay (A549-ACE2 cells): No decrease in cell viability
- plasma stability (Plasma stability): stable in plasma
- phosphorylation of Ser2 of EIF2S2 in mouse lung (EIF2S2 (phospho-Ser2)): no statistically significant reduction
- phosphorylation of Ser129 of AKT in mouse lung (AKT (phospho-Ser129)): no statistically significant reduction
- DYRK1A NanoBRET dose-response occupancy (DYRK1A [7]): d Poor assay window observed but no occupancy observed up to 3 μM. n.d. = not determined.
- receptor occupancy at 10 µM (DAPK2): 50 to 75%
- receptor occupancy at 10 µM (HIPK4): 50 to 75%
- receptor occupancy at 10 µM (CLK4): 50 to 75%
- receptor occupancy at 10 µM (PHKG1): 50 to 75%
- receptor occupancy at 10 µM (DYRK1A [8]): 50 to 75%

SMILES: N#Cc1cnn2c(NC3CC3)cc(Nc3cccc(-n4cnnc4)c3)nc12 [Compound 14, 5-((3-(4H-1,2,4-Triazol-4-yl)phenyl)amino)-7-(cyclopropylamino)pyrazolo[1,5-a]pyrimidine-3-carbonitrile]
- remaining at 0.5 h, 5 μM [1]: 74%
- CLint scaled at 1 h [2]: 7.6 mL/min/kg
- CLint scaled at 2 h, 1 µM [3]: 160 mL/min/kg
- CLint scaled at 2 h, 1 µM [4]: 16 mL/min/kg

Other lines, results leading:

- remaining at 0.5 h, 5 μM [1]: 22%
- CLint scaled at 1 h [2]: 25 mL/min/kg
- CLint scaled at 2 h, 1 µM [3]: 520 mL/min/kg
- CLint scaled at 2 h, 1 µM [4]: 58 mL/min/kg
SMILES: CC(=O)Nc1cccc(Nc2cc(NC3CC3)n3ncc(C#N)c3n2)c1 [Compound 3, N-(3-((3-Cyano-7-(cyclopropylamino)pyrazolo[1,5-a]pyrimidin-5-yl)amino)phenyl)acetamide]

- pIC50 ([5]; read-out: MHV IC50, positive control of the assay): 5.92
SMILES: O=c1nc(NO)ccn1[C@@H]1O[C@H](CO)[C@@H](O)[C@H]1O [EIDD-1931, reference compound]
